Source: patent US7355055B2, “Compounds for treatment of lipase-mediated diseases” (Reliance Life Sciences Pvt. Ltd., priority 2005, dated 2008)
Counter-ions that a name gives are not always drawn.

Columns and labels:
Pancreatic Lipase = target: T1, Pancreatic Lipase (Sus scrofa, UniProt P00591); test: Pancreatic lipase inhibition assay (p-nitro phenol palmitate substrate, 96-well); assay type: biochemical; conditions: for IC50: dose range 6.25 μM-200 μM, interpolated by linear regression; for inhibition at 100 µM / inhibition at 200 µM: pancreatic lipase, 37° C., OD 405 nm; for inhibition at 100 µM: compound 100 μM; for inhibition at 200 µM: compound 200 μM
T1 construct: purchased Sigma L-3126
T1 sequence (P00591 1-450): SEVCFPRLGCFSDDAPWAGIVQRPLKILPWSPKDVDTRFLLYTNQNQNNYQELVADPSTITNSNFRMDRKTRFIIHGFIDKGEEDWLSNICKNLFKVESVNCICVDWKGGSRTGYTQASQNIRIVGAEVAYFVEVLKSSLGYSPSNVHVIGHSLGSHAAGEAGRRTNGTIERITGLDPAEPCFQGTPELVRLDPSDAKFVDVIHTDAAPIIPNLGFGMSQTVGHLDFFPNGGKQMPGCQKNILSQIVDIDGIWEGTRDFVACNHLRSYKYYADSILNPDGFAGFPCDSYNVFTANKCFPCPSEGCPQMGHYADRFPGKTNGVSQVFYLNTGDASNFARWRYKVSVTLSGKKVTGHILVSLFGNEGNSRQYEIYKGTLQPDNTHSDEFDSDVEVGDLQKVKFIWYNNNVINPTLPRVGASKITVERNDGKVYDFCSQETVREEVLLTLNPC
Experimental: (§1) Preparation of test samples: Structures #2-#19 were dissolved in 1 mL DMSO to obtain a 10 mM stock solution, and were vortexed to dissolution and stored at 4° C. The various concentration of working samples were prepared in 0.2 M phosphate buffer, pH-8.0. This sample was used as test sample for all further assays.
Lipase assay: Lipase assay was performed by method described by Winkler and Stuckmann, 1979, with modification. (Winkler, U. K. & Stuckmann, M. Glycogen, hyaluronate, and some other polysaccharides greatly enhance the formation of exolipase by Serratia marcescens. J. Bacteriol. 138: 663-670 (1979)) Assay was designed, using a 96-well format. The substrate used in this assay was p-nitro phenol palmitate (Sigma, Cat No-N-2752). 4.5 mg of p-nitro phenol palmitate was dissolved in 200 μl of N,N-dimethyl formamide (Sigma, Cat No, D-4551) and volume made up to 10 ml with 0.1 M pH 8.0 phosphate buffer. Pancreatic Lipase (Sigma, Cat No. L-3126) sample was prepared by dissolving the enzyme in 0.1M phosphate buffer at a concentration of 5 mg/ml. The reaction mixture consisted of 150 μl substrate solution; 40 μl phosphate buffer (pH 8.0, 0.2 M) and 10 μl lipase solution. The reaction mixture was incubated at 37° C. and optical density was measured at 405 nm after incubation. Enzyme activity was presented in the form of international unit (IU).
Lipase activity: One enzyme unit of lipase is defined as that quantity releasing 1 nm of free phenol from the substrate (p-nitro phenol palmitate) per min per ml under the standard assay condition (Winkler and Stuckmann, 1979; Yadav R P, Saxena R K, Gupta R. Davidson W S., Purification and characterization of a region-specific lipase from Aspergillus terreus. Biotechnol. Appl. Biochem. (1998) 28, (243-249)). It is derived from standard graph of p-nitro phenol (Sigma, 104-8).
(§2) Lipase inhibition assay: Enzyme inhibition assay was performed in a dose dependent manner. The concentration of the synthetic analogs checked were 100 μM & 200 μM. The assay was similar to assay described above except 40 μl of test sample was used instead of phosphate buffer in control. Optical density was measured at 0 hr and following incubation at 37° C.
Enzyme Inhibition: Enzyme inhibition was presented in the term of relative activity and percentage inhibition simply on the basis of change in international unit (IU).
as §1, with “Synthetic analogues” for “Structures #2-#19”, “ml” for “mL”, “solution. The samples” for “solution, and”, “O.2” for “0.2”
as §2, with “6.25 μM-200” for “100 μM & 200”, “C. The enzyme activity was measured in terms of international unit (IU).” for “C.”
Lipase activity: One enzyme unit of lipase is defined as that quantity releasing 1 nm of free phenol from the substrate (p-nitro phenol palmitate)/min per ml under standard assay conditions. It is derived from standard graph of p-nitro phenol (Sigma, 104-8)
Percent Inhibition: Enzyme inhibition was presented in the term of % inhibition simply on the basis of change in international unit (IU).
The value of IC50 was derived from linear regression. The value derived is based on interpolated data.

Structure (SMILES) | melting point | IC50 (Pancreatic Lipase) | inhibition at 100 µM (Pancreatic Lipase) | inhibition at 200 µM (Pancreatic Lipase)
CCCCCCCCCCCC1=C(OC(=O)c2cccc(F)c2)C(=O)C=C(OC(=O)c2cccc(F)c2)C1=O [Structure #2, 2,5-bis-(3-fluorophenylcarbonyloxy)-3-undecyl-1,4-benzoquinone] | 73.2 to 75.6 °C | < 6.25 µM | 99.2% | 97.9%
CCCCCCCCCCCC1=C(OC(=O)c2ccccc2F)C(=O)C=C(OC(=O)c2ccccc2F)C1=O [Structure #4, 2,5-bis-(2-fluorophenylcarbonyloxy)-3-undecyl-1,4-benzoquinone] | 66.2 to 68 °C | 7.78 µM | 99.6% | 100%
CCCCCCCCCCCC1=C(OC(=O)c2cccc([N+](=O)[O-])c2)C(=O)C=C(OC(=O)c2cccc([N+](=O)[O-])c2)C1=O [Structure #11, 2,5-bis-(3-nitrophenylcarbonyloxy)-3-undecyl-1,4-benzoquinone] | 112.6 to 114.4 °C | 27 µM | 97.4% | 98%

Second part, the compound after the results:

melting point | IC50 (Pancreatic Lipase) | inhibition at 100 µM (Pancreatic Lipase) | inhibition at 200 µM (Pancreatic Lipase) | Structure (SMILES)
99.2 to 100.5 °C |  |  |  | CCCCCCCCCCCC1=C(OC(=O)c2ccc(OC)cc2)C(=O)C=C(OC(=O)c2ccc(OC)cc2)C1=O (as salt: Na) [Structure #18, 2,5-bis-(4-methoxyphenylcarbonyloxy)-3-undecyl-1,4-benzoquinone]
64.2 to 67.6 °C |  |  |  | CCCCCCCCCCCC1=C(OC(=O)c2ccccc2I)C(=O)C=C(OC(=O)c2ccccc2I)C1=O (as salt: Na) [Structure #19, 2,5-bis-(2-iodophenylcarbonyloxy)-3-undecyl-1,4-benzoquinone]
